These results are taken from patent publication US8003660B2, “Modulators of muscarinic receptors” (Vertex Pharmaceuticals Incorporated, priority 2006, dated 2011).

Holding throughout (assay type): cell-based
Test [1] has as its target T1, M1 muscarinic receptor (Homo sapiens, UniProt P11229).
T1 construct: expressed in transfected cells; host or cells: CHO (M1-CHO)
T1 sequence (P11229 1-460): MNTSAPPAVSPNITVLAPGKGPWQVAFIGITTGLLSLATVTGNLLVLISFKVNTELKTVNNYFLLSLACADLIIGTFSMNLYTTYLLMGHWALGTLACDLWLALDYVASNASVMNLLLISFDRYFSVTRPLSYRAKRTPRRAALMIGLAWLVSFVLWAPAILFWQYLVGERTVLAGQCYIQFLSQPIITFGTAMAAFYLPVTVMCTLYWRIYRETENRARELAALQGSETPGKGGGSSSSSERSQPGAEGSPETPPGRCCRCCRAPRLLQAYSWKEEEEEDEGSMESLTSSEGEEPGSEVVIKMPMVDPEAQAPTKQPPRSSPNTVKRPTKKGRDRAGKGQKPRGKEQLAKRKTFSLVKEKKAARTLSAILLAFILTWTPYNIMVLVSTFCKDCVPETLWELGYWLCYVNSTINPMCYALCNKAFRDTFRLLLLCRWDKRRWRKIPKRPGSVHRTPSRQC
Kind of test: Functional mobilization of intracellular calcium (FLIPR) in CHO cells expressing M1. As to conditions: for M1 Activity: CHO cells expressing M1, FLIPR calcium assay; for Emax: CHO, 100% efficacy = maximum response obtained with the Carbachol control. In outline:
(§1)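 Calcium flux is read on FLIPR over 60 sec at 488/540 nm in muscarinic-receptor CHO lines. Antagonist mode adds carbachol at EC80 after 15 min compound preincubation or with simultaneous co-application. Agonist mode adds compound alone. Cells carry Fluo-3 or Calcium 3 dye in probenecid-containing pH 7.4 buffer, 0.5% DMSO final.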

In test [2] the target is T2, M2 muscarinic receptor (Homo sapiens, UniProt P08172).
T2 construct: expressed in transfected cells; host or cells: CHO (M2-CHO)
T2 sequence (P08172 1-466): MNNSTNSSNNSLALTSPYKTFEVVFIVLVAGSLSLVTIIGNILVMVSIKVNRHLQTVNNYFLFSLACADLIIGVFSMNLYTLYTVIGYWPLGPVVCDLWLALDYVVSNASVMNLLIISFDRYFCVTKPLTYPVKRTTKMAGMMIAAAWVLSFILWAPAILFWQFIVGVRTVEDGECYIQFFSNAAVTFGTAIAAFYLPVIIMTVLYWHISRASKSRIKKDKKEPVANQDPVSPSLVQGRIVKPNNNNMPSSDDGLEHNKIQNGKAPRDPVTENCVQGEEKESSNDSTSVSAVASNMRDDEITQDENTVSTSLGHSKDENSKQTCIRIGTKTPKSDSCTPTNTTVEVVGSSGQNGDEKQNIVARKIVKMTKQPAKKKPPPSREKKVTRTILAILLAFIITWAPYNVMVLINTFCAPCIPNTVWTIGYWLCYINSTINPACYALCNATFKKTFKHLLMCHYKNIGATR
Kind of test: Functional mobilization of intracellular calcium (FLIPR) in CHO cells expressing M2. To be noted: for M2 Activity: CHO cells expressing M2, FLIPR calcium assay; for Emax: CHO, 100% efficacy = maximum response obtained with the Carbachol control. Put shortly:
as §1

Test [3] deals with T3, M3 muscarinic receptor (Homo sapiens, UniProt P20309).
T3 construct: expressed in transfected cells; host or cells: CHO (M3-CHO)
The test is described as follows: Functional mobilization of intracellular calcium (FLIPR) in CHO cells expressing M3. As to conditions: for M3 Activity: CHO cells expressing M3, FLIPR calcium assay; for Emax: CHO, 100% efficacy = maximum response obtained with the Carbachol control. Put shortly: as §1

The target of test [4] is T4, M4 muscarinic receptor (Homo sapiens, UniProt P08173).
T4 construct: expressed in transfected cells; host or cells: CHO (M4-CHO)
T4 sequence (P08173 1-479): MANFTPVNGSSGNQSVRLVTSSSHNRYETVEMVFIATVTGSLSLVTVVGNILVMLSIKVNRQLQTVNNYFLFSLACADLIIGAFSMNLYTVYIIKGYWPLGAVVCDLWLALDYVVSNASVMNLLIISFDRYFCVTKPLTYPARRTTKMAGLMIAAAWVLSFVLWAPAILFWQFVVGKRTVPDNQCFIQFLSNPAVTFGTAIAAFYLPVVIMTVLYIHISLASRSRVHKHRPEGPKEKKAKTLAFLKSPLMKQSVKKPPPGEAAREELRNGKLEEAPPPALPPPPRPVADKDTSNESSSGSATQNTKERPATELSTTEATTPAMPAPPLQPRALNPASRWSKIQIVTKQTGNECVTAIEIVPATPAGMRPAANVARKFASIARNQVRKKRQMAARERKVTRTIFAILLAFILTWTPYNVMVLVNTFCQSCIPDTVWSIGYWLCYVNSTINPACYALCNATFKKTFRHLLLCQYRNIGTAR
The test is described as follows: Functional mobilization of intracellular calcium (FLIPR) in CHO cells expressing M4. To be noted: for M4 Activity: CHO cells expressing M4, FLIPR calcium assay; for Emax: CHO, 100% efficacy = maximum response obtained with the Carbachol control. In outline: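 Read-out: FLIPR fluorescence (ex 488, em 540 nm) over 60 s. Recombinant CHO lines are dye-loaded (Fluo-3 AM or Calcium 3) with 1 mM probenecid. For antagonist mode, compound is pre-incubated 15 min, or co-applied, then carbachol is added at 3× EC80 per subtype.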

A value given as a limit tells only on which side of the number the result lay.

T3 sequence (P20309 whole entry): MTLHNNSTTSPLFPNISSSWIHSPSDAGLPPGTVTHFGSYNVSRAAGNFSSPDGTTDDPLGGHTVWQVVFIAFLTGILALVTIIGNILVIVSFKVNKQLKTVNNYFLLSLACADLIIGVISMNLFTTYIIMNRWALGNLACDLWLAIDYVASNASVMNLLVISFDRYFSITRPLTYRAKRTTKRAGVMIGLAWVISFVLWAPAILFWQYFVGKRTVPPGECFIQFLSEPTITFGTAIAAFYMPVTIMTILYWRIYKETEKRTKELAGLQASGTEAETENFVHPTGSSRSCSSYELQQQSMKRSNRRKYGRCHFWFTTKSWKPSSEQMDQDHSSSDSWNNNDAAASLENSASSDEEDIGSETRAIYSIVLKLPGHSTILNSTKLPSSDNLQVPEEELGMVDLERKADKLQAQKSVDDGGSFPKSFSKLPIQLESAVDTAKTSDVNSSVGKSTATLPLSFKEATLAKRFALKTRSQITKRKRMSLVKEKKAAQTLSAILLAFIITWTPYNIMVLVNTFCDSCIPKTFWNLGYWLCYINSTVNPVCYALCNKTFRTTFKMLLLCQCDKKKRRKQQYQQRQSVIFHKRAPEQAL

Turning to `COC(=O)CN1CCC2(CC1)C[C@H](NC(C)=O)c1ccccc12` [compound 233], in test [1], the “M1 Activity” value is on record as “+ (activity was measured to be greater than 5.0 μM)” and the maximal response (Emax) lay in the range of 25 to 100%. In test [2], the “M2 Activity” value is on record as “+ (activity was measured to be greater than 5.0 μM)” and the maximal response (Emax) was less than 25%. Moreover, in test [3], the “M3 Activity” value is reported as “+ (activity was measured to be greater than 5.0 μM)” and the maximal response (Emax) is less than 25%. Further, in test [4], the “M4 Activity” value is given as “+ (activity was measured to be greater than 5.0 μM)” and the maximum response (Emax) was less than 25%.
For the compound `CCOc1ccc(CN2CCC3(CC[C@H](NC(C)=O)c4ccccc43)CC2)cc1` [compound 234], in test [1], the “M1 Activity” value is “++ (activity was measured to be from 2.0 μM to 5.0 μM)” and the Emax lay within 25 to 100%. Moreover, in test [2], the “M2 Activity” value is on record as “+ (activity was measured to be greater than 5.0 μM)” and the Emax is less than 25%. Further, in test [3], the “M3 Activity” value is “+ (activity was measured to be greater than 5.0 μM)” and the Emax is less than 25%. Also, in test [4], the “M4 Activity” value is given as “++ (activity was measured to be from 2.0 μM to 5.0 μM)” and the Emax lay within 25 to 100%.
In the case of `CC(=O)N[C@H]1CC2(CCN(CC(=O)NCC(C)C)CC2)c2ccccc21` [compound 235], in test [1], the “M1 Activity” value is “+ (activity was measured to be greater than 5.0 μM)” and the maximum response (Emax) is less than 25%. Further, in test [2], the “M2 Activity” value is listed as “+ (activity was measured to be greater than 5.0 μM)” and the Emax is less than 25%. In test [3], the “M3 Activity” value is recorded as “+ (activity was measured to be greater than 5.0 μM)” and the maximum response (Emax) was less than 25%. In test [4], the “M4 Activity” value is listed as “+ (activity was measured to be greater than 5.0 μM)” and the Emax is less than 25%.
`CC(=O)N[C@H]1CC2(CCN(C(C)CC(C)C)CC2)c2ccccc21` (stereo partly drawn) [compound 236]: in test [1], the “M1 Activity” value is listed as “+ (activity was measured to be greater than 5.0 μM)” and the maximum response (Emax) is less than 25%. In test [2], the “M2 Activity” value was “+ (activity was measured to be greater than 5.0 μM)” and the Emax is less than 25%. In test [3], the “M3 Activity” value is “+ (activity was measured to be greater than 5.0 μM)” and the maximum response (Emax) is less than 25%. In addition, in test [4], the “M4 Activity” value is “+ (activity was measured to be greater than 5.0 μM)” and the maximum response (Emax) was less than 25%.
As for `COC(=O)CCCN1CCC2(CC1)C[C@H](NC(C)=O)c1ccccc12` [compound 237], in test [1], the “M1 Activity” value is reported as “+ (activity was measured to be greater than 5.0 μM)” and the maximum response (Emax) is 25 to 100%. In test [2], the “M2 Activity” value is “+ (activity was measured to be greater than 5.0 μM)” and the maximal effect (Emax) was less than 25%. Besides, in test [3], the “M3 Activity” value is recorded as “+ (activity was measured to be greater than 5.0 μM)” and the Emax is less than 25%. Moreover, in test [4], the “M4 Activity” value is given as “+ (activity was measured to be greater than 5.0 μM)” and the Emax is 25 to 100%.
On to `C/C=C(\C)CN1CCC2(CC1)C[C@H](NC(C)=O)c1ccccc12` [compound 238], for which, in test [1], the “M1 Activity” value is listed as “+ (activity was measured to be greater than 5.0 μM)” and the maximal effect (Emax) was less than 25%. Further, in test [2], the “M2 Activity” value is “+ (activity was measured to be greater than 5.0 μM)” and the Emax is less than 25%. In test [3], the “M3 Activity” value is “+ (activity was measured to be greater than 5.0 μM)” and the maximal response (Emax) is less than 25%. Moreover, in test [4], the “M4 Activity” value is recorded as “+ (activity was measured to be greater than 5.0 μM)” and the maximal response (Emax) is less than 25%.
Turning to `COc1cc2c(cc1OC)C1(CCN(C(=O)OC(C)(C)C)CC1)CC2=O` [compound 239], in test [1], the “M1 Activity” value is given as “+ (activity was measured to be greater than 5.0 μM)” and the Emax is less than 25%. In test [2], the “M2 Activity” value was “+ (activity was measured to be greater than 5.0 μM)” and the Emax was less than 25%. Moreover, in test [3], the “M3 Activity” value was “+ (activity was measured to be greater than 5.0 μM)” and the Emax is less than 25%. Also, in test [4], the “M4 Activity” value is “+ (activity was measured to be greater than 5.0 μM)” and the Emax was less than 25%.
Turning to `CCNC(=O)CN1CCC2(CC1)C[C@H](NC(C)=O)c1ccccc12` [compound 241], in test [1], the “M1 Activity” value was “+ (activity was measured to be greater than 5.0 μM)” and the maximum response (Emax) is less than 25%. Also, in test [2], the “M2 Activity” value is “+ (activity was measured to be greater than 5.0 μM)” and the Emax was less than 25%. Also, in test [3], the “M3 Activity” value is recorded as “+ (activity was measured to be greater than 5.0 μM)” and the maximal response (Emax) was less than 25%. Also, in test [4], the “M4 Activity” value is reported as “+ (activity was measured to be greater than 5.0 μM)” and the Emax was less than 25%.
With `C=CCCCN1CCC2(CC1)C[C@H](NC(C)=O)c1ccccc12` [compound 242], in test [1], the “M1 Activity” value is “+ (activity was measured to be greater than 5.0 μM)” and the maximal response (Emax) lay in the range of 25 to 100%. Besides, in test [2], the “M2 Activity” value is listed as “+ (activity was measured to be greater than 5.0 μM)” and the Emax is less than 25%. In test [3], the “M3 Activity” value is listed as “+ (activity was measured to be greater than 5.0 μM)” and the Emax was less than 25%. Moreover, in test [4], the “M4 Activity” value is on record as “++ (activity was measured to be from 2.0 μM to 5.0 μM)” and the maximal effect (Emax) lay within 25 to 100%.
With `CC(=O)N[C@H]1CC2(CCN(CC(C)(C)C)CC2)c2ccccc21` [compound 243], in test [1], the “M1 Activity” value is on record as “+ (activity was measured to be greater than 5.0 μM)” and the Emax is 25 to 100%. Further, in test [2], the “M2 Activity” value is reported as “+ (activity was measured to be greater than 5.0 μM)” and the Emax lay in the range of 25 to 100%. Besides, in test [3], the “M3 Activity” value is “+ (activity was measured to be greater than 5.0 μM)” and the maximum response (Emax) was less than 25%. Further, in test [4], the “M4 Activity” value is listed as “+++ (activity was measured to be less than 2.0 μM)” and the Emax lay in the range of 25 to 100%.
For `CC(=O)N[C@H]1CC2(CCN(CCC(C)(C)C)CC2)c2ccccc21` [compound 244], in test [1], the “M1 Activity” value is listed as “+++ (activity was measured to be less than 2.0 μM)” and the maximum response (Emax) is 25 to 100%. For the same compound, in test [2], the “M2 Activity” value is given as “+ (activity was measured to be greater than 5.0 μM)” and the Emax is less than 25%. Moreover, in test [3], the “M3 Activity” value is given as “+ (activity was measured to be greater than 5.0 μM)” and the Emax was less than 25%. Also, in test [4], the “M4 Activity” value is “+++ (activity was measured to be less than 2.0 μM)” and the maximal response (Emax) lay within 25 to 100%.
For the compound `CC(C)(C)CN1CCC2(CC1)CC(C(=O)O)c1ccccc12` (stereo not drawn) [compound 246], in test [1], the “M1 Activity” value is “+ (activity was measured to be greater than 5.0 μM)” and the Emax is less than 25%. Moreover, in test [2], the “M2 Activity” value is “+ (activity was measured to be greater than 5.0 μM)” and the Emax is less than 25%. In addition, in test [3], the “M3 Activity” value was “+ (activity was measured to be greater than 5.0 μM)” and the maximal effect (Emax) is less than 25%. Further, in test [4], the “M4 Activity” value was “+ (activity was measured to be greater than 5.0 μM)” and the maximal effect (Emax) was less than 25%.
